# Measurements reported in article PMC11129975, “A first-in-human phase I study of TAS-117, an allosteric AKT inhibitor, in patients with advanced solid tumors” (Cancer Chemotherapy and Pharmacology, 2024).
# Experiment: Phase I safety: adverse events, adverse drug reactions, DLTs in patients with advanced solid tumors
# Type: in vivo, human
# Source text: This was a phase I, open-label, non-randomized, dose-escalating first-in-human study to evaluate the safety, pharmacokinetics, antitumor activity, pharmacodynamics, and pharmacogenomics of TAS-117 in patients with advanced solid tumors. The study had three phases: a dose escalation phase (DEP), a regimen modification phase (RMP), and a safety assessment phase (SAP). The treatment cycle on each regimen lasted 21 days. The DEP used an accelerated titration and 3 + 3 design. TAS-117 was administered orally once daily (QD) on an empty stomach (1 h before or 2 h after a meal). Dosing was determined based on a 4-week repeated oral-dose toxicology study in monkeys (data on file, Taiho Pharmaceutical Co., Ltd.); the highest non-severely toxic dose was 1.2 mg/kg/day, which was converted to 3.84 mg/body/day, or 2.4 mg/m^2. Therefore, the starting dose was determined to be ≤ 2.4 mg/m^2. At dose level 1, TAS-117 was administered at 2 mg QD (Day − 2), and the dose was increased to 4 mg QD after 2 days (Day 1). The RMP was conducted according to a 3 + 3 design. During this phase, the dose regimen was changed from QD administration to intermittent dosing of daily TAS-117 with 4 days on/3 days off. TAS-117 was administered on an empty stomach. Dose-limiting toxicities (DLTs) were evaluated in Cycle 1 of the DEP and RMP. […] The RD and regimen for the SAP were determined based on the safety, pharmacokinetics, pharmacodynamics, and antitumor activity profile determined in the DEP and RMP. During the SAP, the safety and preliminary efficacy profiles of TAS-117 were assessed at the RD and recommended regimen. Three cohorts were included in this assessment. Cohort 1 included patients with endometrial cancer with a PIK3CA mutation; cohort 2 included patients with endometrial cancer with an AKT1 mutation, AKT1 amplification, or AKT2 amplification; and cohort 3 included patients with ovarian clear cell carcinoma.
# The primary endpoints were the proportion of patients who experienced DLTs in Cycle 1 of the DEP and RMP and the incidence of adverse events (AEs) and adverse drug reactions (ADRs) in the SAP. AEs and ADRs were coded using the Medical Dictionary for Regulatory Activities (MedDRA; version 24.1) and graded according to the National Cancer Institute Common Terminology Criteria for Adverse Events (CTCAE; version 4.03). Secondary endpoints were pharmacokinetic findings, changes in the ratio of phosphorylated PRAS40 (pPRAS40)/total PRAS40 from baseline, efficacy, and pharmacogenomics findings.
compound,measurement,setting,value
C[C@]1(O)C[C@@](N)(c2ccc(-c3nc4n(c3-c3ccccc3)COc3ccncc3-4)cc2)C1 [TAS-117],Adverse drug reactions: Blood AP increased,"Total N = 65, All grade",7 (10.8) n (%)
same,Adverse drug reactions: Decreased appetite,"Total N = 65, All grade",10 (15.4) n (%)
same,Adverse drug reactions: Diarrhea,"Total N = 65, All grade",8 (12.3) n (%)
same,Adverse drug reactions: Dry skin,"Total N = 65, All grade",8 (12.3) n (%)
same,Adverse drug reactions: GGT increased,"Total N = 65, All grade",8 (12.3) n (%)
same,Adverse drug reactions: GI disorders,"Total N = 65, All grade",41 (63.1) n (%)
same,Adverse drug reactions: General disorders and administration site conditions,"Total N = 65, All grade",27 (41.5) n (%)
same,Adverse drug reactions: Hyperglycemia,"Total N = 65, All grade",30 (46.2) n (%)
same,Adverse drug reactions: Investigations,"Total N = 65, All grade",39 (60.0) n (%)
same,Adverse drug reactions: Metabolism and nutrition disorders,"Total N = 65, All grade",36 (55.4) n (%)
same,Adverse drug reactions: Nausea,"Total N = 65, All grade",16 (24.6) n (%)
same,Adverse drug reactions: Neutrophil count decreased,"Total N = 65, All grade",21 (32.3) n (%)
same,Adverse drug reactions: Pruritus,"Total N = 65, All grade",13 (20.0) n (%)
same,Adverse drug reactions: Pyrexia,"Total N = 65, All grade",17 (26.2) n (%)
same,Adverse drug reactions: Rash maculo-papular,"Total N = 65, All grade",58 (89.2) n (%)
same,Adverse drug reactions: Skin and SC tissue disorders,"Total N = 65, All grade",61 (93.8) n (%)
same,Adverse drug reactions: Stomatitis,"Total N = 65, All grade",37 (56.9) n (%)
same,Adverse drug reactions: Vomiting,"Total N = 65, All grade",7 (10.8) n (%)
same,Adverse drug reactions: WBC count decreased,"Total N = 65, All grade",25 (38.5) n (%)
same,Adverse events: ALT increased,"Total N = 65, All grade",12 (18.5) n (%)
same,Adverse events: AST increased,"Total N = 65, All grade",13 (20.0) n (%)
same,Adverse events: Any events,"Total N = 65, All grade",64 (98.5) n (%)
same,Adverse events: Blood AP increased,"Total N = 65, All grade",8 (12.3) n (%)
same,Adverse events: Decreased appetite,"Total N = 65, All grade",19 (29.2) n (%)
same,Adverse events: Diarrhea,"Total N = 65, All grade",15 (23.1) n (%)
same,Adverse events: Dry skin,"Total N = 65, All grade",11 (16.9) n (%)
same,Adverse events: GGT increased,"Total N = 65, All grade",11 (16.9) n (%)
same,Adverse events: GI disorders,"Total N = 65, All grade",51 (78.5) n (%)
same,Adverse events: General disorders and administration site conditions,"Total N = 65, All grade",39 (60.0) n (%)
same,Adverse events: Hyperglycemia,"Total N = 65, All grade",30 (46.2) n (%)
same,Adverse events: Investigations,"Total N = 65, All grade",42 (64.6) n (%)
same,Adverse events: Metabolism and nutrition disorders,"Total N = 65, All grade",44 (67.7) n (%)
same,Adverse events: Nausea,"Total N = 65, All grade",21 (32.3) n (%)
same,Adverse events: Neutrophil count decreased,"Total N = 65, All grade",21 (32.3) n (%)
same,Adverse events: Pruritus,"Total N = 65, All grade",13 (20.0) n (%)
same,Adverse events: Pyrexia,"Total N = 65, All grade",24 (36.9) n (%)
same,Adverse events: Rash maculo-papular,"Total N = 65, All grade",58 (89.2) n (%)
same,Adverse events: Skin and SC tissue disorders,"Total N = 65, All grade",61 (93.8) n (%)
same,Adverse events: Stomatitis,"Total N = 65, All grade",38 (58.5) n (%)
same,Adverse events: Vomiting,"Total N = 65, All grade",13 (20.0) n (%)
same,Adverse events: WBC count decreased,"Total N = 65, All grade",25 (38.5) n (%)
same,Adverse drug reactions: ALT increased,"Total N = 65, ≥ Grade 3",2 (3.1) n (%)
same,Adverse drug reactions: AST increased,"Total N = 65, ≥ Grade 3",0 (0.0) n (%)
same,Adverse drug reactions: Any events,"Total N = 65, ≥ Grade 3",39 (60.0) n (%)
same,Adverse drug reactions: Blood AP increased,"Total N = 65, ≥ Grade 3",0 (0.0) n (%)
same,Adverse drug reactions: Decreased appetite,"Total N = 65, ≥ Grade 3",0 (0.0) n (%)
same,Adverse drug reactions: Diarrhea,"Total N = 65, ≥ Grade 3",0 (0.0) n (%)
same,Adverse drug reactions: Dry skin,"Total N = 65, ≥ Grade 3",0 (0.0) n (%)
same,Adverse drug reactions: GGT increased,"Total N = 65, ≥ Grade 3",5 (7.7) n (%)
same,Adverse drug reactions: GI disorders,"Total N = 65, ≥ Grade 3",1 (1.5) n (%)
same,Adverse drug reactions: General disorders and administration site conditions,"Total N = 65, ≥ Grade 3",0 (0.0) n (%)
same,Adverse drug reactions: Hyperglycemia,"Total N = 65, ≥ Grade 3",11 (16.9) n (%)
same,Adverse drug reactions: Investigations,"Total N = 65, ≥ Grade 3",20 (30.8) n (%)
same,Adverse drug reactions: Metabolism and nutrition disorders,"Total N = 65, ≥ Grade 3",11 (16.9) n (%)
same,Adverse drug reactions: Nausea,"Total N = 65, ≥ Grade 3",0 (0.0) n (%)
same,Adverse drug reactions: Neutrophil count decreased,"Total N = 65, ≥ Grade 3",9 (13.8) n (%)
same,Adverse drug reactions: Pruritus,"Total N = 65, ≥ Grade 3",0 (0.0) n (%)
same,Adverse drug reactions: Pyrexia,"Total N = 65, ≥ Grade 3",0 (0.0) n (%)
same,Adverse drug reactions: Rash maculo-papular,"Total N = 65, ≥ Grade 3",23 (35.4) n (%)
same,Adverse drug reactions: Skin and SC tissue disorders,"Total N = 65, ≥ Grade 3",24 (36.9) n (%)
same,Adverse drug reactions: Stomatitis,"Total N = 65, ≥ Grade 3",1 (1.5) n (%)
same,Adverse drug reactions: Vomiting,"Total N = 65, ≥ Grade 3",0 (0.0) n (%)
same,Adverse drug reactions: WBC count decreased,"Total N = 65, ≥ Grade 3",8 (12.3) n (%)
same,Adverse events: ALT increased,"Total N = 65, ≥ Grade 3",2 (3.1) n (%)
same,Adverse events: AST increased,"Total N = 65, ≥ Grade 3",1 (1.5) n (%)
same,Adverse events: Any events,"Total N = 65, ≥ Grade 3",44 (67.7) n (%)
same,Adverse events: Blood AP increased,"Total N = 65, ≥ Grade 3",1 (1.5) n (%)
same,Adverse events: Decreased appetite,"Total N = 65, ≥ Grade 3",1 (1.5) n (%)
same,Adverse events: Diarrhea,"Total N = 65, ≥ Grade 3",1 (1.5) n (%)
same,Adverse events: Dry skin,"Total N = 65, ≥ Grade 3",0 (0.0) n (%)
same,Adverse events: GGT increased,"Total N = 65, ≥ Grade 3",8 (12.3) n (%)
same,Adverse events: GI disorders,"Total N = 65, ≥ Grade 3",4 (6.2) n (%)
same,Adverse events: General disorders and administration site conditions,"Total N = 65, ≥ Grade 3",0 (0.0) n (%)
same,Adverse events: Hyperglycemia,"Total N = 65, ≥ Grade 3",11 (16.9) n (%)
same,Adverse events: Investigations,"Total N = 65, ≥ Grade 3",24 (36.9) n (%)
same,Adverse events: Metabolism and nutrition disorders,"Total N = 65, ≥ Grade 3",13 (20.0) n (%)
same,Adverse events: Nausea,"Total N = 65, ≥ Grade 3",0 (0.0) n (%)
same,Adverse events: Neutrophil count decreased,"Total N = 65, ≥ Grade 3",9 (13.8) n (%)
same,Adverse events: Pruritus,"Total N = 65, ≥ Grade 3",0 (0.0) n (%)
same,Adverse events: Pyrexia,"Total N = 65, ≥ Grade 3",0 (0.0) n (%)
same,Adverse events: Rash maculo-papular,"Total N = 65, ≥ Grade 3",23 (35.4) n (%)
same,Adverse events: Skin and SC tissue disorders,"Total N = 65, ≥ Grade 3",24 (36.9) n (%)
same,Adverse events: Stomatitis,"Total N = 65, ≥ Grade 3",1 (1.5) n (%)
same,Adverse events: Vomiting,"Total N = 65, ≥ Grade 3",0 (0.0) n (%)
same,Adverse events: WBC count decreased,"Total N = 65, ≥ Grade 3",8 (12.3) n (%)
same,Patients who developed AEs related to skin disorders,all treated patients,93.8%
same,Patients with maculopapular rash,all treated patients,89.2%
same,Patients who discontinued because of AEs,dose level 4 (24 mg intermittent administration),four patients
same,Recommended dose (RD),intermittent dosing (4 days on/3 days off),24 mg
same,Tolerability,once daily up to 16 mg/day and intermittent dosing of 24 mg/day,well tolerated
same,Maculopapular rash grade ≥ 3,printed as % of patients with this AE,35.4%
